Legend:
Conditions in all cases: 72 h
[1] = test system: Caco-2; experiment: cell viability relative to DMSO; higher = less toxic
[2] = test system: Calu-3; experiment: as above
[3] = test system: HepG2; experiment: as above
[4] = test system: U2OS; experiment: as above
[5] = test system: Vero E6; experiment: as above
[6] = test system: Caco-2; experiment: relative viability EC50 (midpoint between 100% and the lowest measured viability); higher = less toxic
[7] = test system: Calu-3; experiment: as above
[8] = test system: Vero E6; experiment: as above
[9] = test system: Caco-2; experiment: drug sensitivity score (DSS) for viability; higher = more toxic; extreme values may be limits of the assay
[10] = test system: Calu-3; experiment: as above
[11] = test system: HepG2; experiment: as above
[12] = test system: U2OS; experiment: as above
[13] = test system: Vero E6; experiment: as above
[14] = test system: HepG2; experiment: relative viability EC50 (midpoint between 100% and the lowest measured viability); higher = less toxic
[15] = test system: U2OS; experiment: as above

## C[C@]1(O)C[C@@H](c2nc(-c3ccc4ccc(-c5ccccc5)nc4c3)c3c(N)nccn32)C1 [linsitinib]
[1]; 1 nM
  cell viability: 96.6%
[1]; 10 nM
  cell viability: 98.9%
[1]; 100 nM
  cell viability: 84.7%
[1]; 1000 nM
  cell viability: 75.7%
[1]; 10000 nM
  cell viability: 47.2%
[2]; 1 nM
  cell viability: 97.7%
[2]; 10 nM
  cell viability: 104%
[2]; 100 nM
  cell viability: 101%
[2]; 1000 nM
  cell viability: 116%
[2]; 10000 nM
  cell viability: 104%
[3]; 1 nM
  cell viability: 90.5%
[3]; 10 nM
  cell viability: 87%
[3]; 100 nM
  cell viability: 95.2%
[3]; 1000 nM
  cell viability: 62%
[3]; 10000 nM
  cell viability: 54.8%
[4]; 1 nM
  cell viability: 101%
[4]; 10 nM
  cell viability: 103%
[4]; 100 nM
  cell viability: 92.7%
[4]; 1000 nM
  cell viability: 82.4%
[4]; 10000 nM
  cell viability: 67.9%
[5]; 1 nM
  cell viability: 99.9%
[5]; 10 nM
  cell viability: 98.9%
[5]; 100 nM
  cell viability: 104%
[5]; 1000 nM
  cell viability: 96.5%
[5]; 10000 nM
  cell viability: 109%
[6]
  relative viability EC50: 0.674 µM
[7]
  relative viability EC50: > 10 µM
[8]
  relative viability EC50: > 10 µM
[9]
  drug sensitivity score: 6.3
[10]
  drug sensitivity score: 0
[11]
  drug sensitivity score: 7.5
[12]
  drug sensitivity score: 3.3
[13]
  drug sensitivity score: 0

## O=C(O)COc1ccc(OCCNC[C@H](O)COc2ccccc2)cc1 [ICI-215,001]
[1]; 1 nM
  cell viability: 98.1%
[1]; 10 nM
  cell viability: 111%
[1]; 100 nM
  cell viability: 103%
[1]; 1000 nM
  cell viability: 103%
[1]; 10000 nM
  cell viability: 116%
[3]; 1 nM
  cell viability: 106%
[3]; 10 nM
  cell viability: 104%
[3]; 100 nM
  cell viability: 104%
[3]; 1000 nM
  cell viability: 104%
[3]; 10000 nM
  cell viability: 97.1%
[5]; 1 nM
  cell viability: 106%
[5]; 10 nM
  cell viability: 97.5%
[5]; 100 nM
  cell viability: 101%
[5]; 1000 nM
  cell viability: 104%
[5]; 10000 nM
  cell viability: 92.6%
[6]
  relative viability EC50: > 10 µM
[14]
  relative viability EC50: > 10 µM
[8]
  relative viability EC50: > 10 µM
[9]
  drug sensitivity score: 0
[11]
  drug sensitivity score: 0
[13]
  drug sensitivity score: 0

## CCCCCCOC(=O)NC(=N)c1ccc(NCc2nc3cc(C(=O)N(CCC(=O)OCC)c4ccccn4)ccc3n2C)cc1 [dabigatran-etexilate]
[1]; 1 nM
  cell viability: 96.5%
[1]; 10 nM
  cell viability: 88.5%
[1]; 100 nM
  cell viability: 104%
[1]; 1000 nM
  cell viability: 93.8%
[1]; 10000 nM
  cell viability: 78.1%
[2]; 1 nM
  cell viability: 101%
[2]; 10 nM
  cell viability: 82.3%
[2]; 100 nM
  cell viability: 109%
[2]; 1000 nM
  cell viability: 103%
[2]; 10000 nM
  cell viability: 84.3%
[3]; 1 nM
  cell viability: 91.6%
[3]; 10 nM
  cell viability: 106%
[3]; 100 nM
  cell viability: 88.9%
[3]; 1000 nM
  cell viability: 116%
[3]; 10000 nM
  cell viability: 72.7%
[4]; 1 nM
  cell viability: 97.7%
[4]; 10 nM
  cell viability: 92.9%
[4]; 100 nM
  cell viability: 101%
[4]; 1000 nM
  cell viability: 95.9%
[4]; 10000 nM
  cell viability: 96.9%
[5]; 1 nM
  cell viability: 97.8%
[5]; 10 nM
  cell viability: 103%
[5]; 100 nM
  cell viability: 99.4%
[5]; 1000 nM
  cell viability: 102%
[5]; 10000 nM
  cell viability: 108%
[6]
  relative viability EC50: > 10 µM
[7]
  relative viability EC50: > 10 µM
[15]
  relative viability EC50: > 10 µM
[8]
  relative viability EC50: > 10 µM
[9]
  drug sensitivity score: 1.5
[10]
  drug sensitivity score: 0.1
[11]
  drug sensitivity score: 0.7
[12]
  drug sensitivity score: 0
[13]
  drug sensitivity score: 0

## O=S(=O)(NCCNC/C=C/c1ccc(Br)cc1)c1cccc2cnccc12 [H-89]
[1]; 1 nM
  cell viability: 99.9%
[1]; 10 nM
  cell viability: 103%
[1]; 100 nM
  cell viability: 98.7%
[1]; 1000 nM
  cell viability: 99.9%
[1]; 10000 nM
  cell viability: 89.6%
[2]; 1 nM
  cell viability: 79.7%
[2]; 10 nM
  cell viability: 100%
[2]; 100 nM
  cell viability: 87.6%
[2]; 1000 nM
  cell viability: 103%
[2]; 10000 nM
  cell viability: 118%
[3]; 1 nM
  cell viability: 95.5%
[3]; 10 nM
  cell viability: 96.4%
[3]; 100 nM
  cell viability: 91.9%
[3]; 1000 nM
  cell viability: 102%
[3]; 10000 nM
  cell viability: 74.7%
[4]; 1 nM
  cell viability: 101%
[4]; 10 nM
  cell viability: 96%
[4]; 100 nM
  cell viability: 102%
[4]; 1000 nM
  cell viability: 97.2%
[4]; 10000 nM
  cell viability: 90.7%
[5]; 1 nM
  cell viability: 96.8%
[5]; 10 nM
  cell viability: 97.6%
[5]; 100 nM
  cell viability: 100%
[5]; 1000 nM
  cell viability: 97%
[5]; 10000 nM
  cell viability: 82.9%
[6]
  relative viability EC50: > 10 µM
[7]
  relative viability EC50: > 10 µM
[15]
  relative viability EC50: > 10 µM
[8]
  relative viability EC50: > 10 µM
[9]
  drug sensitivity score: 0
[10]
  drug sensitivity score: 0
[11]
  drug sensitivity score: 0.8
[12]
  drug sensitivity score: 0
[13]
  drug sensitivity score: 0.7

## COC(=O)Nc1ccc(-c2nc(N3CCOCC3)c3cnn(C4CCN(C(=O)OC)CC4)c3n2)cc1 [WYE-354]
[1]; 1 nM
  cell viability: 98.3%
[1]; 10 nM
  cell viability: 99.3%
[1]; 100 nM
  cell viability: 97.3%
[1]; 1000 nM
  cell viability: 83.1%
[1]; 10000 nM
  cell viability: 48.3%
[2]; 1 nM
  cell viability: 93.6%
[2]; 10 nM
  cell viability: 91.4%
[2]; 100 nM
  cell viability: 95.8%
[2]; 1000 nM
  cell viability: 92.2%
[2]; 10000 nM
  cell viability: 52.2%
[3]; 1 nM
  cell viability: 104%
[3]; 10 nM
  cell viability: 107%
[3]; 100 nM
  cell viability: 94.8%
[3]; 1000 nM
  cell viability: 102%
[3]; 10000 nM
  cell viability: 44.8%
[4]; 1 nM
  cell viability: 99.3%
[4]; 10 nM
  cell viability: 98.3%
[4]; 100 nM
  cell viability: 104%
[4]; 1000 nM
  cell viability: 98.6%
[4]; 10000 nM
  cell viability: 84.8%
[5]; 1 nM
  cell viability: 97.4%
[5]; 10 nM
  cell viability: 99.7%
[5]; 100 nM
  cell viability: 91.8%
[5]; 1000 nM
  cell viability: 96.4%
[5]; 10000 nM
  cell viability: 64.8%
[6]
  relative viability EC50: 1.38 µM
[14]
  relative viability EC50: 3.34 µM
[15]
  relative viability EC50: > 10 µM
[9]
  drug sensitivity score: 5
[10]
  drug sensitivity score: 3.8
[11]
  drug sensitivity score: 2.8
[12]
  drug sensitivity score: 0.4
[13]
  drug sensitivity score: 2.2

## Cc1cccc(C(=O)NCN2CCN(c3ccccc3C#N)CC2)c1
[1]; 1 nM
  cell viability: 95.3%
[1]; 10 nM
  cell viability: 103%
[1]; 100 nM
  cell viability: 89.1%
[1]; 1000 nM
  cell viability: 104%
[1]; 10000 nM
  cell viability: 104%
[3]; 1 nM
  cell viability: 105%
[3]; 10 nM
  cell viability: 96.6%
[3]; 100 nM
  cell viability: 96.9%
[3]; 1000 nM
  cell viability: 101%
[3]; 10000 nM
  cell viability: 94.5%
[4]; 1 nM
  cell viability: 98.1%
[4]; 10 nM
  cell viability: 103%
[4]; 100 nM
  cell viability: 97.2%
[4]; 1000 nM
  cell viability: 101%
[4]; 10000 nM
  cell viability: 101%
[6]
  relative viability EC50: > 10 µM
[14]
  relative viability EC50: > 10 µM
[15]
  relative viability EC50: > 10 µM
[9]
  drug sensitivity score: 0
[11]
  drug sensitivity score: 0
[12]
  drug sensitivity score: 0

## CCOCOC[C@H](C[C@H](C)C(=O)NO)NC(=O)c1ccc(Oc2ccccc2)cc1 [ONO-4817]
[1]; 1 nM
  cell viability: 104%
[1]; 10 nM
  cell viability: 104%
[1]; 100 nM
  cell viability: 100%
[1]; 1000 nM
  cell viability: 103%
[1]; 10000 nM
  cell viability: 87.6%
[2]; 1 nM
  cell viability: 92.3%
[2]; 10 nM
  cell viability: 85.3%
[2]; 100 nM
  cell viability: 97.6%
[2]; 1000 nM
  cell viability: 95.4%
[2]; 10000 nM
  cell viability: 89.2%
[4]; 1 nM
  cell viability: 98.1%
[4]; 10 nM
  cell viability: 103%
[4]; 100 nM
  cell viability: 97.1%
[4]; 1000 nM
  cell viability: 104%
[4]; 10000 nM
  cell viability: 92.6%
[5]; 1 nM
  cell viability: 103%
[5]; 10 nM
  cell viability: 102%
[5]; 100 nM
  cell viability: 103%
[5]; 1000 nM
  cell viability: 101%
[5]; 10000 nM
  cell viability: 91.5%
[6]
  relative viability EC50: > 10 µM
[7]
  relative viability EC50: > 10 µM
[15]
  relative viability EC50: > 10 µM
[8]
  relative viability EC50: > 10 µM
[9]
  drug sensitivity score: 0
[10]
  drug sensitivity score: 0
[12]
  drug sensitivity score: 0
[13]
  drug sensitivity score: 0

## CC[C@@]1(O)C(=O)OCc2c1cc1n(c2=O)Cc2c-1nc1cc(F)c(C)c3c1c2[C@@H](N)CC3 [exatecan-mesylate]
[1]; 1 nM
  cell viability: 90.7%
[1]; 10 nM
  cell viability: 72.7%
[1]; 100 nM
  cell viability: 32.7%
[1]; 1000 nM
  cell viability: 21%
[1]; 10000 nM
  cell viability: 20.7%
[3]; 1 nM
  cell viability: 65.8%
[3]; 10 nM
  cell viability: 40.5%
[3]; 100 nM
  cell viability: 20.8%
[3]; 1000 nM
  cell viability: 2.3%
[3]; 10000 nM
  cell viability: 3.9%
[4]; 1 nM
  cell viability: 102%
[4]; 10 nM
  cell viability: 92%
[4]; 100 nM
  cell viability: 56.9%
[4]; 1000 nM
  cell viability: 17%
[4]; 10000 nM
  cell viability: 4.1%
[5]; 1 nM
  cell viability: 110%
[5]; 10 nM
  cell viability: 91.8%
[5]; 100 nM
  cell viability: 60.6%
[5]; 1000 nM
  cell viability: 15.9%
[5]; 10000 nM
  cell viability: 0.4%
[6]
  relative viability EC50: 0.0178 µM
[14]
  relative viability EC50: 0.0038 µM
[15]
  relative viability EC50: 0.127 µM
[8]
  relative viability EC50: 0.158 µM
[9]
  drug sensitivity score: 25.8
[11]
  drug sensitivity score: 36.4
[12]
  drug sensitivity score: 20.9
[13]
  drug sensitivity score: 20.5

Reference: the supplement of paper PMC13380429
